Legend:
Type in all cases: in vivo
CHENOPODIUM ALBUM, L. = experiment: Preemergence herbicidal evaluation, CHEAL (Lambsquarters, Common); conditions: rated four to five weeks after treatment
Text: (§1) Results of herbicide evaluation are expressed on a rating scale (0-9). The scale is based upon a visual observation of plant stand, vigor, malformation, size, chlorosis and overall plant appearance as compared with a control.
The preemergence herbicidal activity of the test compounds of the present invention is exemplified by the following tests in which the seeds of a variety of monocotyledonous and dicotyledonous plants are separately mixed with potting soil and planted on top of approximately one inch of soil in separate pint cups. […] The treated cups are then placed on greenhouse benches, watered and cared for in accordance with conventional greenhouse procedures. From four to five weeks after treatment, the tests are terminated and each cup is examined and rated according to the rating system provided in Example 40.
The compounds evaluated are reported by compound number given in Example 40.

CYPERUS IRIA = experiment: Preemergence weed control under flooded paddy conditions, CYPIR (Rice Flatsedge); conditions: preemergence, 3-4 weeks after treatment
Method: as §1
(§2) Preemergence herbicidal activity under flooded paddy conditions is determined as follows: plant seeds or propagating organs are planted in the top 0.5 cm of silt loam soil in 32 oz. plastic containers with a diameter of 10.5 cm and no drainage holes. Water is added to these containers and maintained at 1.5 to 3 cm above the soil surface for the duration of the experiment. […] The treated containers are placed on greenhouse benches and cared for according to normal greenhouse procedures.- Three to four weeks after treatment the test is terminated and each container is examined and herbicidal effect rated according to the rating system provided in Example 40. The compounds evaluated are reported by compound number given in Example 40.
(§3) Plant species employed in this example are reported by header abbreviation, common name and scientific name.

[1] = system: CYPERUS SEROTINUS, ROTTB.; experiment: Preemergence weed control under flooded paddy conditions, CYPSE (Flatsedge); conditions: preemergence, 3-4 weeks after treatment
Method: as §1, §2, §3

[…], PRESL. = Preemergence weed control under flooded paddy conditions, MOOVA (Monochoria); conditions: preemergence, 3-4 weeks after treatment
Method: as §1
Preemergence herbicidal activity under flooded paddy conditions is determined as follows: plant seeds or propagating organs are planted in the top 0.5 cm of silt loam soil in 32 oz. plastic containers with a diameter of 10.5 cm and no drainage holes. Water is added to these containers and maintained at 1.5 to 3 cm above the soil surface for the duration of the experiment. The test compounds are applied as aqueous/acetone mixtures 50/50 v/v pipetted directly into the flood water to give the equivalent of about 0.5, 0.25, 0.125 and 0.063 kg/ha of active ingredient. The treated containers are placed on greenhouse benches and cared for according to normal greenhouse procedures.- Three to four weeks after treatment the test is terminated and each container is examined and herbicidal effect rated according to the rating system provided in Example 40. The compounds evaluated are reported by compound number given in Example 40.
as §3

SAGITTARIA PYGMAEA, L. = experiment: Preemergence weed control under flooded paddy conditions, SAGPY (Arrowhead (Pygmaea)); conditions: preemergence, 3-4 weeks after treatment
Method: as §1, §2, §3

[2] = system: ORYZA SATIVA, L. TEBONNET; experiment: Rice tolerance to post-transplant applications under flooded paddy conditions, ORYSAT (Rice, Tebonnet); conditions: post-transplant rice, 3-4 weeks after treatment
Method: as §1
The tolerance of transplanted rice to post-transplanted herbicide applications is determined as follows: two ten-day-old rice seedlings (CV. Tebonnet) are transplanted into a silt loam soil in 32 oz. plastic containers with a diameter of 10.5 cm and no drainage holes. After transplanting the containers are flooded and the water level is maintained at 1.5 to 3 cm above the soil surface. […] The treated containers are placed on greenhouse benches, watered such that the water level is maintained as stated above, and cared for according to normal greenhouse procedures. Three to four weeks after treatment the test is terminated and each container is examined and herbicidal effect rated according to the rating system provided in Example 40. The compounds evaluated are reported by compound number given in Example 40.
as §3

COC(=O)Cn1c(=O)n(C)c(=O)n(-c2cc(Oc3c(Cl)cc(Cl)cc3Cl)ccc2[N+](=O)[O-])c1=O [Compound 33, Methyl tetrahydro-3-methyl-5-[2-nitro-5-(2,4,6-trichlorophenoxy)phenyl]-2,4,6-trioxo-s-triazine-1(2H)-acetate]
CHEAL herbicidal rating (CHENOPODIUM ALBUM, L.; Rate 0.125 kg/ha): 9.0 | CHEAL herbicidal rating (CHENOPODIUM ALBUM, L.; Rate 0.250 kg/ha): 9.0 | CHEAL herbicidal rating (CHENOPODIUM ALBUM, L.; Rate 0.500 kg/ha): 9.0 | Herbicidal effect rating, CYPIR (CYPERUS IRIA; 0.063 kg/ha): 9.0 | Herbicidal effect rating, CYPIR (CYPERUS IRIA; 0.125 kg/ha): 9.0 | Herbicidal effect rating, CYPIR (CYPERUS IRIA; 0.250 kg/ha): 9.0 | Herbicidal effect rating, CYPIR (CYPERUS IRIA; 0.500 kg/ha): 9.0 | Herbicidal effect rating, CYPSE ([1]; 0.063 kg/ha): 0.0 | Herbicidal effect rating, CYPSE ([1]; 0.125 kg/ha): 0.0 | Herbicidal effect rating, CYPSE ([1]; 0.250 kg/ha): 0.0 | Herbicidal effect rating, CYPSE ([1]; 0.500 kg/ha): 0.0 | Herbicidal effect rating, MOOVA ([…], PRESL.; 0.063 kg/ha): 9.0 | Herbicidal effect rating, MOOVA ([…], PRESL.; 0.125 kg/ha): 9.0 | Herbicidal effect rating, MOOVA ([…], PRESL.; 0.250 kg/ha): 9.0 | Herbicidal effect rating, MOOVA ([…], PRESL.; 0.500 kg/ha): 9.0 | Herbicidal effect rating, SAGPY (SAGITTARIA PYGMAEA, L.; 0.063 kg/ha): 0.0 | Herbicidal effect rating, SAGPY (SAGITTARIA PYGMAEA, L.; 0.125 kg/ha): 0.0 | Herbicidal effect rating, SAGPY (SAGITTARIA PYGMAEA, L.; 0.250 kg/ha): 0.0 | Herbicidal effect rating, SAGPY (SAGITTARIA PYGMAEA, L.; 0.500 kg/ha): 0.0 | Herbicidal effect rating, ORYSAT ([2]; 0.063 kg/ha): 3.0 | Herbicidal effect rating, ORYSAT ([2]; 0.125 kg/ha): 3.0 | Herbicidal effect rating, ORYSAT ([2]; 0.250 kg/ha): 3.0 | Herbicidal effect rating, ORYSAT ([2]; 0.500 kg/ha): 4.0
